Key:
Assay in all cases: differential drug sensitivity score (dDSS) relative to sarcoma reference cohort mean DSS (DSS units (0-100 scale difference)); higher = more selective sensitivity than reference sarcomas
Conditions in all cases: exposure time: 72 h; concentration range: 10-10000 nM
CDS-ZH001-2 = test system: CDS-ZH001-2 (patient-derived CIC-DUX4 sarcoma tumoroid)
Procedure: (§1)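 Drug response profiling of patient-derived Ewing sarcoma and CIC::DUX4 sarcoma tumoroid models (or cells tested directly after isolation from the tumor, 'direct'). The DSS is the normalised AUC (0-100); dDSS is the sample DSS minus the mean DSS of a 34-sarcoma reference cohort profiled in the same lab.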

CDS-ZH001 = test system: CDS-ZH001 (patient-derived CIC-DUX4 sarcoma tumoroid)
Procedure: as §1

CDS-ZH002 direct = test system: CDS-ZH002 direct (CIC-DUX4 sarcoma cells right after isolation)
Procedure: as §1

CDS-ZH002 = test system: CDS-ZH002 (patient-derived CIC-DUX4 sarcoma tumoroid)
Procedure: as §1

CDS-ZH003 = test system: CDS-ZH003 (patient-derived CIC-DUX4 sarcoma tumoroid)
Procedure: as §1

ES-ZH001 = test system: ES-ZH001 (patient-derived Ewing sarcoma tumoroid)
Procedure: as §1

ES-ZH002 = test system: ES-ZH002 (patient-derived Ewing sarcoma tumoroid)
Procedure: as §1

ES-ZH004 = test system: ES-ZH004 (patient-derived Ewing sarcoma tumoroid)
Procedure: as §1

ES-ZH007 = test system: ES-ZH007 (patient-derived Ewing sarcoma tumoroid)
Procedure: as §1

ES-ZH008 = test system: ES-ZH008 (patient-derived Ewing sarcoma tumoroid)
Procedure: as §1

ES-ZH009 = test system: ES-ZH009 (patient-derived Ewing sarcoma tumoroid)
Procedure: as §1

ES-ZH016 direct = test system: ES-ZH016 direct (Ewing sarcoma cells right after isolation)
Procedure: as §1

ES-ZH016 = test system: ES-ZH016 (patient-derived Ewing sarcoma tumoroid)
Procedure: as §1

Compound	differential drug sensitivity score (CDS-ZH001-2)	differential drug sensitivity score (CDS-ZH001)	differential drug sensitivity score (CDS-ZH002 direct)	differential drug sensitivity score (CDS-ZH002)	differential drug sensitivity score (CDS-ZH003)	differential drug sensitivity score (ES-ZH001)	differential drug sensitivity score (ES-ZH002)	differential drug sensitivity score (ES-ZH004)	differential drug sensitivity score (ES-ZH007)	differential drug sensitivity score (ES-ZH008)	differential drug sensitivity score (ES-ZH009)	differential drug sensitivity score (ES-ZH016 direct)	differential drug sensitivity score (ES-ZH016)
CC[C@H](Nc1ncnc2[nH]cnc12)c1nc2cccc(F)c2c(=O)n1-c1ccccc1 [Idelalisib]	-1.3	-1.4	-1.5	-1.4	2.9	-1.5	1.3	-1.5	-1.5	-1.5	-1.5	-1.5	1.5
O=P1(NCCCl)OCCCN1CCCl (stereo not drawn) [Ifosfamide]	-1	-1	-1	-1	-1	0.6	5.4	5.5	-1	1.6	-1	-1	-1
Cc1ccc(NC(=O)c2ccc(CN3CCN(C)CC3)cc2)cc1Nc1nccc(-c2cccnc2)n1 [Imatinib]	-0.8	0.4	-1.3	-1.5	12.4	-2.9	3.2	0.7	-1.3	0.1	-3.3	1.6	-3.3
CCN1CCN(c2ccc(Nc3cc(N(C)C(=O)Nc4c(Cl)c(OC)cc(OC)c4Cl)ncn3)cc2)CC1 [Infigratinib]	-1.1	-1.9	2.3	-6.1	-1.3	-4	2	-3.9	-3.2	-6.1	-0.1	1.6	-4
CC(C)NC[C@@H](C(=O)N1CCN(c2ncnc3c2[C@H](C)C[C@H]3O)CC1)c1ccc(Cl)cc1 [Ipatasertib]	2	7.6	-3.2	-0.8	8.9	-3.2	10.2	3.9	1.3	6.6	2.4	-3.9	-0.5
CCc1c2c(nc3ccc(OC(=O)N4CCC(N5CCCCC5)CC4)cc13)-c1cc3c(c(=O)n1C2)COC(=O)[C@]3(O)CC [Irinotecan]	-0.6	1	-5.3	-4	-9.5	19.6	23.1	23.1	14.3	31.1	9.1	15.8	17.9
N#Cc1ccnc(N2C(=O)CC[C@H]2C(=O)N(c2cncc(F)c2)[C@H](C(=O)NC2CC(F)(F)C2)c2ccccc2Cl)c1 [Ivosidenib]	-2.1	-2.1	-2.1	-2.1	-2.1	-2.1	-2.1	-2.1	-2.1	7.8	-2.1	18.2	-2.1
CC(C)C[C@H](NC(=O)CNC(=O)c1cc(Cl)ccc1Cl)B(O)O [Ixazomib]	3.6	9.5	9.9	1.8	3.2	5.2	4.9	3.5	4.9	0.7	7.6	-2.2	-2.9
Clc1ccc(NN=C(c2ccccc2)c2ccccn2)nc1 [JIB04]	0.6	-4.4	-4.8	1.4	-2.7	-6.1	-6	-4.3	0.7	-2.5	-2.6	-0.6	1.5
CCc1c(O)cc(O)c(C(=O)c2ccc(OCCN3CCOCC3)c(OC)c2)c1CC(=O)N(CCOC)CCOC [KW-2478]	0.4	-0.4	-0.4	-3.8	-1.3	3.5	7.3	0	0.6	6.1	4.4	3.2	1.4
CN[C@@H](C)C(=O)N[C@H](C(=O)N1CCC[C@H]1c1nc(C(=O)c2ccc(F)cc2)cs1)C1CCCCC1 [LCL161]	4.5	11.6	1	-1.3	3.3	-1.3	-1.3	-0.7	-0.2	-0.8	-1.3	0.8	-1.3
CS(=O)(=O)CCNCc1ccc(-c2ccc3ncnc(Nc4ccc(OCc5cccc(F)c5)c(Cl)c4)c3c2)o1 [Lapatinib]	-0.5	-0.7	-0.7	-0.7	-0.7	-0.7	0.3	-0.7	-0.7	-0.7	-0.7	-0.5	-0.7
O=C(Nc1cnn2ccc(N3CCC[C@@H]3c3cc(F)ccc3F)nc12)N1CC[C@H](O)C1 [Larotrectinib]	-0.9	1.2	-0.9	-0.9	8.8	-0.9	-0.9	-0.8	-0.9	-0.9	-0.9	-0.9	-0.9
Nc1cccc2c1CN(C1CCC(=O)NC1=O)C2=O (stereo not drawn) [Lenalidomide]	-1.2	-1.2	-1.2	-1.2	-1.2	0.4	1.8	7.7	-1.2	7.4	-1.2	-1.2	-1.2
COc1cc2nccc(Oc3ccc(NC(=O)NC4CC4)c(Cl)c3)c2cc1C(N)=O [Lenvatinib]	-2.4	-2.4	-2.4	-2.4	-2.4	3.9	5.8	0.5	-1.2	5	-2.4	-2.4	-2.4
Cc1ccc(F)c(NC(=O)Nc2ccc(-c3cccc4[nH]nc(N)c34)cc2)c1 [Linifanib]	-0.9	0.8	1.4	-1.4	0.8	3.8	2.4	-1.3	-1.4	-0.4	2.3	0.7	0.1
C[C@]1(O)C[C@@H](c2nc(-c3ccc4ccc(-c5ccccc5)nc4c3)c3c(N)nccn32)C1 [Linsitinib]	5.7	3.8	-5.9	-5	5.7	0.8	15.2	3.2	3	4.9	3.7	3.2	6.8
C[C@H]1Oc2cc(cnc2N)-c2c(nn(C)c2C#N)CN(C)C(=O)c2ccc(F)cc21 [Lorlatinib]	6.9	11.6	4.2	-1.4	1.5	-1.4	5.9	-4.3	-0.9	-3.5	-2.4	-1.1	1.2
CCNC(=O)c1noc(-c2cc(C(C)C)c(O)cc2O)c1-c1ccc(CN2CCOCC2)cc1 [Luminespib]	2.1	4.1	-3.8	-9.4	2.7	3.5	10.5	1.2	3.7	7.8	6.6	8.1	2.2
NC1(c2ccc(-c3nc4ccn5c(=O)[nH]nc5c4cc3-c3ccccc3)cc2)CCC1 [MK-2206]	10.4	3.7	0.7	-3.1	-2.3	1.8	14	6.8	3.4	13.3	4.8	15.8	0.5
Cn1cc(-c2cnn3c(N)c(Br)c([C@@H]4CCCNC4)nc23)cn1 [MK-8776]	7.1	4.4	1.1	-1.5	-6.8	4.7	8.9	-2.9	1.8	8.5	6.8	6.3	-1.8
C=C(F)C(=O)N1CCN(c2nc(OC[C@@H]3CCCN3C)nc3c2CCN(c2cccc4cccc(Cl)c24)C3)C[C@@H]1CC#N [MRTX849]	0.7	4.8	0.7	1.5	3.5	-0.9	1.1	0.1	2	1.6	1.8	-1.7	-1.7
N[C@@H](Cc1ccc(N(CCCl)CCCl)cc1)C(=O)O [Melphalan]	-1.7	-1.7	-1.7	-1.7	-1.7	-1	7	4.3	-1.7	2.7	-1.3	4	3.5
S=c1[nH]cnc2nc[nH]c12 [Mercaptopurine]	12	3.8	-1.8	-1.3	-5	0.9	0.3	-4.2	-0.4	-1.6	7.4	4.9	2.9
CN(Cc1cnc2nc(N)nc(N)c2n1)c1ccc(C(=O)N[C@@H](CCC(=O)O)C(=O)O)cc1 [Methotrexate]	-10.9	0	-10.4	-4.9	-14	11.6	-0.6	-9.9	-3.6	-6.2	21.6	-5.4	4.4
CO[C@@H]1[C@H](N(C)C(=O)c2ccccc2)C[C@H]2O[C@]1(C)n1c3ccccc3c3c4c(c5c6ccccc6n2c5c31)C(=O)NC4 [Midostaurin]	2.2	-1.3	0.6	-4.2	-0.3	5.9	3.4	-11	-1.6	5.8	7.9	7.8	3.1

Source: the supplement of paper PMC12370961
